Experimental data: patent US20240254115A1 (ACONDICIONAMIENTO TARRASENSE, priority 2021, published 2024)

Experiments:
human σ1 receptor = target: T1, human σ1 receptor (Homo sapiens, UniProt Q99720); test: Human σ1 receptor radioligand assay; conditions: transfected HEK-293 membranes, 5 nM [3H](+)-pentazocine, 37° C. 120 minutes; + may also stand for 1-50% inhibition at 1 or 10 μM; read-out: Binding σ-1 Ki
T1 construct: expressed in transfected cells; host or cells: HEK-293
How it was run: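 Ki was derived from five test concentrations, or % inhibition was measured at a single 1 or 10 μM dose, against 5 nM [3H](+)-pentazocine. Incubation was 120 min at 37° C in 50 mM Tris-HCl pH 8 with 7 μg HEK-293 membranes, and 10 μM haloperidol set non-specific binding. Bound radioactivity was counted after filtration.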

human σ2/TMEM97 receptor = target: T2, human σ2/TMEM97 receptor (Homo sapiens, UniProt Q5BJF2); test: Binding assay to human σ2/TMEM97 receptor; conditions: transfected HEK-293 membranes, 10 nM [3H]-DTG, 25° C. 120 minutes; + may also stand for 1-50% inhibition at 1 or 10 μM; read-out: Binding σ-2 Ki
T2 construct: expressed in transfected cells; host or cells: HEK-293
T2 sequence (Q5BJF2 whole entry): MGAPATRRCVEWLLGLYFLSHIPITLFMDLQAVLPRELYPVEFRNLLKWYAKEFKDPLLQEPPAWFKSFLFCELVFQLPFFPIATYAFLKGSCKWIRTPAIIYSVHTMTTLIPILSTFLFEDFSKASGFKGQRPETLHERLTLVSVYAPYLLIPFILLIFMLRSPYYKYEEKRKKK
How it was run: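 Membranes from transfected HEK-293 cells (15 µg) were incubated with 10 nM [3H]-DTG in 50 mM Tris-HCl pH 8.0 for 120 min at 25 °C, with 10 µM haloperidol defining non-specific binding. Filtration and scintillation counting followed. Compounds tested as % inhibition at 1 or 10 µM, or at five concentrations for Ki.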

T1 sequence (Q99720 whole entry): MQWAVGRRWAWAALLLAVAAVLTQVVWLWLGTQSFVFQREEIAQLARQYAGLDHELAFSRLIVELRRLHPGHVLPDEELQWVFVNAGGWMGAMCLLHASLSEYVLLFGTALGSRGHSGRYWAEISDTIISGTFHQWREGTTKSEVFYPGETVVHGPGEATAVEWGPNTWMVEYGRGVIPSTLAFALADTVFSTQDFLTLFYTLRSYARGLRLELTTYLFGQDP

| SMILES | Ki (human σ1 receptor) [µM] | Ki (human σ2/TMEM97 receptor) [µM] |
| --- | --- | --- |
| CN(CC(C)(C)C)C1CCN(S(=O)(=O)c2ccc(N3CCOC3=O)nc2)CC1 [Example 124, 3-(5-((4-(Methyl(neopentyl)amino)pi-peridin-1-yl)sulfonyl)pyridin-2-yl)oxazolidin-2-one] | 0.1 to 0.5 | > 1 |
| N#Cc1ccc(CN2CCC3(CCCN(S(=O)(=O)c4ccc(N5CCOC5=O)nc4)C3)CC2)c(F)c1 [Example 125, 3-Fluoro-4-((2-((6-(2-oxooxazolidin-3-yl)pyridin-3-yl)sulfonyl)-2,9-diazaspiro[5.5]undecan-9-yl)methyl)benzonitrile] | < 0.1 | < 0.1 |
| O=C1CCCN1c1ccc(S(=O)(=O)N2CCCC3(CCN(CC4CCOCC4)CC3)C2)cn1 [Example 126, 1-(5-((9-((Tetrahydro-2H-pyran-4-yl)methyl)-2,9-diazaspiro[5.5]undecan-2-yl)sulfonyl)pyridin-2-yl)pyrrolidin-2-one] | < 0.1 | < 0.1 |
| O=C1OCCN1c1ccc(S(=O)(=O)N2CCCC3(CCN(CC4CCOCC4)CC3)C2)nc1 [Example 127, 3-(6-((9-((Tetrahydro-2H-pyran-4-yl)methyl)-2,9-diazaspiro[5.5]undecan-2-yl)sulfonyl)pyridin-3-yl)oxazolidin-2-one] | < 0.1 | < 0.1 |
| O=C1OCCN1c1ccc(S(=O)(=O)N2CCC3(CCN(CC4CCOCC4)CC3)CC2)cn1 [Example 128, 3-(5-((9-((Tetrahydro-2H-pyran-4-yl)methyl)-3,9-diazaspiro[5.5]undecan-3-yl)sulfonyl)pyridin-2-yl)oxazolidin-2-one] | 0.5 to 1 | < 0.1 |
| CN(CC1CCOCC1)C1CCN(S(=O)(=O)c2ccc(N3CCOC3=O)nc2)CC1 [Example 129, 3-(5-((4-(Methyl((tetrahydro-2H-pyran-4-yl)methyl)amino)piperidin-1-yl)sulfonyl)pyridin-2-yl)oxazolidin-2-one] | 0.1 to 0.5 | 0.1 to 0.5 |
| O=S(=O)(c1ccc(N2CCC(F)(F)CC2)nc1)N1CCCC2(CCN(Cc3ccccc3)CC2)C1 [Example 130, 9-Benzyl-2-((6-(4,4-difluoropiperidin-1-yl)pyridin-3-yl)sulfonyl)-2,9-diazaspiro[5.5]undecane] | < 0.1 | < 0.1 |
| CC(C)(C)CCN1CCC2(CC1)CCN(S(=O)(=O)c1ccc(N3CCOCC3=O)nc1)CC2 [Example 131, 4-(5-((9-(3,3-Dimethylbutyl)-3,9-diazaspiro[5.5]undecan-3-yl)sulfonyl)pyridin-2-yl)morpholin-3-one] | 0.1 to 0.5 | < 0.1 |
| CC(C)(C)CCN1CCC2(CC1)CCN(S(=O)(=O)c1ccc(N3CCCCC3=O)nc1)CC2 [Example 132, 1-(5-((9-(3,3-Dimethylbutyl)-3,9-diazaspiro[5.5]undecan-3-yl)sulfonyl)pyridin-2-yl)piperidin-2-one] | 0.1 to 0.5 | < 0.1 |
| CC(C)(C)CCN1CCC2(CC1)CCN(S(=O)(=O)c1ccc(N3CCCC3=O)nc1)CC2 [Example 133, 1-(5-((9-(3,3-Dimethylbutyl)-3,9-diazaspiro[5.5]undecan-3-yl)sulfonyl)pyridin-2-yl)pyrrolidin-2-one] | 0.1 to 0.5 | < 0.1 |
| CC(C)(C)CCN1CCC2(CC1)CCN(S(=O)(=O)c1ccc(N3CCOC3=O)nc1)CC2 [Example 134, 3-(5-((9-(3,3-Dimethylbutyl)-3,9-diazaspiro[5.5]undecan-3-yl)sulfonyl)pyridin-2-yl)oxazolidin-2-one] | 0.1 to 0.5 | < 0.1 |
| O=C1OCCN1c1ccc(S(=O)(=O)N2CCC3(CCN(Cc4ccccc4)CC3)CC2)cn1 [Example 135, 3-(5-((9-Benzyl-3,9-diazaspiro[5.5]undecan-3-yl)sulfonyl)pyridin-2-yl)oxazolidin-2-one] | < 0.1 | < 0.1 |
| CC(C)(C)CCN1CCCC2(CCN(S(=O)(=O)c3ccc(N4CCCC4=O)nc3)CC2)C1 [Example 136, 1-(5-((2-(3,3-Dimethylbutyl)-2,9-diazaspiro[5.5]undecan-9-yl)sulfonyl)pyridin-2-yl)pyrrolidin-2-one] | < 0.1 | < 0.1 |
| CC(C)(C)CCN1CCCC2(CCN(S(=O)(=O)c3ccc(N4CCOC4=O)nc3)CC2)C1 [Example 137, 3-(5-((2-(3,3-Dimethylbutyl)-2,9-diazaspiro[5.5]undecan-9-yl)sulfonyl)pyridin-2-yl)oxazolidin-2-one] | < 0.1 | < 0.1 |
| CC(C)(C)CCN1CCC2(CC1)CCN(S(=O)(=O)c1ccc(N3CCOC3=O)nc1)C2 [Example 138, 3-(5-((8-(3,3-Dimethylbutyl)-2,8-diazaspiro[4.5]decan-2-yl)sulfonyl)pyridin-2-yl)oxazolidin-2-one] | < 0.1 | < 0.1 |
| CC(C)(C)CCN1CCC2(CC1)CCN(S(=O)(=O)c1ccc(N3CCCC3=O)nc1)C2 [Example 139, 1-(5-((8-(3,3-Dimethylbutyl)-2,8-diazaspiro[4.5]decan-2-yl)sulfonyl)pyridin-2-yl)pyrrolidin-2-one] | < 0.1 | < 0.1 |
| CC(C)(C)CCN1CCC2(CC1)CCN(S(=O)(=O)c1cnc(N3CCOC3=O)c(F)c1)CC2 [Example 140, 3-(5-((9-(3,3-Dimethylbutyl)-3,9-diazaspiro[5.5]undecan-3-yl)sulfonyl)-3-fluoropyridin-2-yl)oxazolidin-2-one] | 0.1 to 0.5 | < 0.1 |
| CC(C)(C)CCN1CCC2(CC1)CCN(S(=O)(=O)c1cnc(N3CCCC3=O)c(F)c1)CC2 [Example 141, 1-(5-((9-(3,3-Dimethylbutyl)-3,9-diazaspiro[5.5]undecan-3-yl)sulfonyl)-3-fluoropyridin-2-yl)pyrrolidin-2-one] | 0.1 to 0.5 | < 0.1 |
| CN(Cc1ccccc1)C1CCN(S(=O)(=O)c2ccc(N3CCOC3=O)nc2)CC1 [Example 142, 3-(5-((4-(Benzyl(methyl)ami-no)piperidin-1-yl)sulfonyl)pyridin-2-yl)oxazolidin-2-one] | 0.1 to 0.5 | < 0.1 |
| CC(C)(C)CN1CCC2(CC1)CCN(S(=O)(=O)c1ccc(N3CCOC3=O)nc1)CC2 [Example 143, 3-(5-((9-Neopentyl-3,9-diazaspiro[5.5]undecan-3-yl)sulfonyl)pyridin-2-yl)oxazolidin-2-one] | > 1 | < 0.1 |
| O=C1OCCN1c1ccc(S(=O)(=O)N2CCC3(CCN(Cc4ccccc4)CC3)C2)cn1 [Example 144, 3-(5-((8-Benzyl-2,8-diazaspiro[4.5]decan-2-yl)sulfonyl)pyridin-2-yl)oxazolidin-2-one] | 0.1 to 0.5 | 0.1 to 0.5 |
| O=C1OCCN1c1ccc(S(=O)(=O)N2CCC3(CCCN(Cc4ccccc4F)C3)CC2)cn1 [Example 145, 3-(5-((2-(2-Fluorobenzyl)-2,9-diazaspiro[5.5]undecan-9-yl)sulfonyl)pyridin-2-yl)oxazolidin-2-one] | 0.5 to 1 | 0.1 to 0.5 |
| O=C1OCCN1c1ccc(S(=O)(=O)N2CCC3(CCCN(Cc4cc(F)ccc4F)C3)CC2)cn1 [Example 146, 3-(5-((2-(2,5-Difluorobenzyl)-2,9-diazaspiro[5.5]undecan-9-yl)sulfonyl)pyridin-2-yl)oxazolidin-2-one] | 0.5 to 1 | 0.5 to 1 |
| O=C1OCCN1c1ccc(S(=O)(=O)N2CCC3(CCCN(Cc4ccccc4)C3)CC2)cn1 [Example 147, 3-(5-((2-Benzyl-2,9-diazaspiro[5.5]undecan-9-yl)sulfonyl)pyridin-2-yl)oxazolidin-2-one] | 0.5 to 1 | 0.1 to 0.5 |
| CN(Cc1ccccc1)C1CCN(S(=O)(=O)c2ccc(N3CCCC3=O)nc2)CC1 [Example 148, 1-(5-((4-(Benzyl(methyl)ami-no)piperidin-1-yl)sulfonyl)pyridin-2-yl)pyrrolidin-2-one] | 0.1 to 0.5 | < 0.1 |
| O=C1OCCN1c1ccc(S(=O)(=O)N2CCC3(CCCN(CC4CCOCC4)C3)CC2)cn1 [Example 149, 3-(5-((2-((Tetrahydro-2H-pyran-4-yl)methyl)-2,9-diazaspiro[5.5]undecan-9-yl)sulfonyl)pyridin-2-yl)oxazolidin-2-one] | < 0.1 | 0.1 to 0.5 |
| CC(C)(C)CN1CCCC2(CCN(S(=O)(=O)c3ccc(N4CCOC4=O)nc3)CC2)C1 [Example 150, 3-(5-((2-Neopentyl-2,9-diazaspiro[5.5]undecan-9-yl)sulfonyl)pyridin-2-yl)oxazolidin-2-one] | 0.5 to 1 | > 1 |
| N#Cc1ccc(CN2CCCC3(CCN(S(=O)(=O)c4ccc(N5CCOC5=O)nc4)CC3)C2)cc1F [Example 151, 2-Fluoro-4-((9-((6-(2-oxooxazolidin-3-yl)pyridin-3-yl)sulfonyl)-2,9-diazaspiro[5.5]undecan-2-yl)methyl)benzonitrile] | 0.1 to 0.5 | < 0.1 |
| N#Cc1cc(CN2CCCC3(CCN(S(=O)(=O)c4ccc(N5CCOC5=O)nc4)CC3)C2)ccc1F [Example 152, 2-Fluoro-5-((9-((6-(2-oxooxazolidin-3-yl)pyridin-3-yl)sulfonyl)-2,9-diazaspiro[5.5]undecan-2-yl)methyl)benzonitrile] | > 1 | > 1 |
| O=C1OCCN1c1ccc(S(=O)(=O)N2CCC3(CCN(CC4CCOCC4)CC3)C2)cn1 [Example 153, 3-(5-((8-((Tetrahydro-2H-pyran-4-yl)methyl)-2,8-diazaspiro[4.5]decan-2-yl)sulfonyl)pyridin-2-yl)oxazolidin-2-one] | < 0.1 | < 0.1 |
